# Structures can show the parent of a compound that is named as a salt.
# Assays:
# [1] = target: T1, rat B1R (Rattus norvegicus, UniProt P97583); test: FLIPR Ca2+ functional study on bradykinin receptor 1 (rB1R CHO K1 cells); type: cell-based; settings: CHO-K1, % inhibition rat B1R at 10 μM, read-out: % inh. (rat B1R) 10 μM
# T1 construct: expressed in transfected cells; host or cells: CHO K1 cells
# T1 sequence (P97583 1-337): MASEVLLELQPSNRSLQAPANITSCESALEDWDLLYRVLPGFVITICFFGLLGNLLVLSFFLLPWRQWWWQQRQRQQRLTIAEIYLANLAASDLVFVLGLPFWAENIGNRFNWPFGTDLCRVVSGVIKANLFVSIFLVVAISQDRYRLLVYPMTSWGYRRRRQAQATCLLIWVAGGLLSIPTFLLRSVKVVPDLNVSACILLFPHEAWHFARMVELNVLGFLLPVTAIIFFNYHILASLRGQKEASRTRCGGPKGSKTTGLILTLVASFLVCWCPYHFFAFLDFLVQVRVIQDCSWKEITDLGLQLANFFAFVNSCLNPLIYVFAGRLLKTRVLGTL
# Outline: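 Antagonism was calculated as % of maximal inhibition of the Ca2+ rise triggered by agonist at EC80 (Lys-Des-Arg9-bradykinin for hB1R, Des-Arg9-bradykinin for rB1R), added 10-20 min after test compound (10 μM or serial dilutions for IC50) to Fluo-4-loaded transfected CHO K1 cells on FLIPR. Duplicates or triplicates, ≥2 independent runs.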
# [2] = target: T2, human B1R (Homo sapiens, UniProt P46663); test: FLIPR Ca2+ functional study on bradykinin receptor 1 (hB1R CHO K1 cells); type: cell-based; settings: % inhibition human B1R at 10 μM, read-out: % inh. (hum. B1R) 10 μM
# T2 construct: expressed in transfected cells; host or cells: CHO K1 cells
# T2 sequence (P46663 1-353): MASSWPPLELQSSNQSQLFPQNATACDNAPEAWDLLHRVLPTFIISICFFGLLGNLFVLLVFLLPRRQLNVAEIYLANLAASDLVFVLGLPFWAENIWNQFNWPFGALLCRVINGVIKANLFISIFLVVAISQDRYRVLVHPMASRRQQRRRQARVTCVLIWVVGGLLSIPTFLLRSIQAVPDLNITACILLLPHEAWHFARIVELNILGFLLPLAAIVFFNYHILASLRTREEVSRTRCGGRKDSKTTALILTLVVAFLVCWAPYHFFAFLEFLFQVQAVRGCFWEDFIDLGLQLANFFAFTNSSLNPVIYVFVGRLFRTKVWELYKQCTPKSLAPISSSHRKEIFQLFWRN
# Protocol: The agonistic or antagonistic activity of substances can be quantified on the bradykinin receptor 1 (B1R) of the species human and rat using ectopically expressing cell lines (CHO K1 cells) and with the aid of a Ca^2+-sensitive dye (Fluo-4) using a fluorescent imaging plate reader (FLIPR). The indication in % activation is based on the Ca^2+ signal after addition of Lys-Des-Arg^9-bradykinin (0.5 nM) or Des-Arg^9-bradykinin (100 nM). Antagonists lead to suppression of the Ca^2+ influx after the addition of the agonist. % Inhibition compared with the maximum achievable inhibition is indicated.
# The agonistic or antagonistic activity of substances can be determined on the bradykinin receptor 1 (B1R) of the species human and rat using the following assay. According to this assay, the Ca^2+ influx through the channel is quantified with the aid of a Ca^2+-sensitive dye (Fluo-4 type, Molecular Probes Europe BV, Leiden, Netherlands) using a Fluorescent Imaging Plate Reader (FLIPR, Molecular Devices, Sunnyvale, USA).
# Chinese hamster ovary cells (CHO K1 cells) which have been stably transfected with the human B1R gene (hB1R cells) or with the B1R gene of the rat (rB1R cells) are used. For functional studies, the cells are plated out on black 96-well plates having a clear base (BD Biosciences, Heidelberg, Germany or Greiner, Frickenhausen, Germany) in a density of 20,000-35,000 cells/well. The cells are left overnight at 37° C. and with 5% CO2 in culture medium (hB1R cells: Nutrient Mixture Ham's F12, Gibco Invitrogen GmbH, Karlsruhe, Germany or DMEM, Sigma-Aldrich, Taufkirchen, Germany; rB1R cells: D-MEM/F12, Gibco Invitrogen GmbH, Karlsruhe, Germany), with 10 vol.% FBS (fetal bovine serum, Gibco Invitrogen GmbH, Karlsruhe, Germany or PAN Biotech GmbH, Aidenbach, Germany). On the following day, the cells are loaded for 60 minutes at 37° C. with 2.13 μM Fluo-4 (Molecular Probes Europe BV, Leiden, Netherlands) in HBSS buffer (Hank's buffered saline solution, Gibco Invitrogen GmbH, Karlsruhe, Germany) […] (Sigma-Aldrich, Taufkirchen, Germany) and 10 mM HEPES (Sigma-Aldrich, Taufkirchen, Germany). The plates are then washed twice with HBSS buffer, and HBSS buffer additionally containing 0.1% BSA (bovine serum albumin; Sigma-Aldrich, Taufkirchen, Germany), 5.6 mM glucose and 0.05% gelatin (Merck KGaA, Darmstadt, Germany) is added to the plates. After incubation for a further 20 minutes at room temperature, the plates are inserted into the FLIPR for Ca^2+ measurement. Alternatively, washing is carried out with buffer A (15 mM HEPES, 80 mM NaCl, 5 mM KCl, 1.2 mM CaCl2, 0.7 mM MgSO4, 2 g/l glucose, 2.5 mM probenecid) followed by loading with buffer A with added 2.5 μM Fluo-4 and 0.025% Pluronic F127 (Sigma-Aldrich, Taufkirchen, Germany). The cells are then washed twice with buffer A and incubated for 30 minutes at room temperature with buffer A additionally containing 0.05% BSA and 0.05% gelatin and are then inserted into the FLIPR for Ca^2+ measurement. The Ca^2+-dependent fluorescence is measured before and after the addition of substances (λex=488 nm, λem=540 nm). Quantification is carried out by measuring the highest fluorescence intensity (FC, fluorescence counts) over time.
# The FLIPR protocol consists of two substance additions. Test substances (10 μM) are first pipetted onto the cells and the Ca^2+ influx is compared with the control (hB1R: Lys-Des-Arg^9-bradykinin>=50 nM; rB1R: Des-Arg^9-bradykinin 10 μM). This gives the activation in %, based on the Ca^2+ signal after addition of Lys-Des-Arg^9-bradykinin (>=50 nM) or Des-Arg^9-bradykinin (10 μM). After 10-20 minutes' incubation, Lys-Des-Arg^9-bradykinin (hB1R) or Des-Arg^9-bradykinin (rB1R) is applied in the concentration of the EC80, and the influx of Ca^2+ is likewise determined. Antagonists lead to suppression of the Ca^2+ influx. The % inhibition compared with the maximum achievable inhibition is calculated. […]
SMILES,inhibition at 10 µM [1] [%],inhibition at 10 µM [2] [%]
"COc1cc(C)c(S(=O)(=O)N(CCOc2nccc(N3CCc4cc(CN5CCC5)ccc4C3)n2)C2CC2)c(C)c1 [Example G-013, N-[2-[[4-[6-(1-azetidinylmethyl)-3,4-dihydro-1H-isoquinolin-2-yl]-2-pyrimidinyl]oxy]ethyl]-N-cyclopropyl-4-methoxy-2,6-dimethylbenzenesulfonamide]",102,92
"COc1cc(C)c(S(=O)(=O)N(CCOc2nccc(N3CCC4(CCN(c5ccncc5)C4)C3)n2)C2CC2)c(C)c1 (stereo not shown) [Example G-014, N-cyclopropyl-4-methoxy-2,6-dimethyl-N-[2-[[4-[8-(4-pyridyl)-3,8-diazaspiro[4.4]nonan-3-yl]-2-pyrimidinyl]oxy]ethyl]benzenesulfonamide]",102,100
"COc1cc(C)c(S(=O)(=O)N(CCOc2nccc(N3CCC4(CCC(N5CCC5)CC4)CC3)n2)C2CC2)c(C)c1 [Example G-015, N-[2-[[4-[9-(1-azetidinyl)-3-azaspiro[5.5]undecan-3-yl]-2-pyrimidinyl]oxy]ethyl]-N-cyclopropyl-4-methoxy-2,6-dimethylbenzenesulfonamide hydrochloride]",95,99
"COc1cc(C)c(S(=O)(=O)N(CCOc2nccc(N3CCC4(CCC(Oc5ccncc5)CC4)CC3)n2)C2CC2)c(C)c1 [Example G-016, N-cyclopropyl-4-methoxy-2,6-dimethyl-N-[2-[[4-[9-(4-pyridyloxy)-3-azaspiro[5.5]undecan-3-yl]-2-pyrimidinyl]oxy]ethyl]benzenesulfonamide]",99,96
"COc1cc(C)c(S(=O)(=O)N(CCOc2nccc(N3CCC4(CCC(N5CC(F)(F)C5)CC4)CC3)n2)C2CC2)c(C)c1 [Example G-017, N-cyclopropyl-N-[2-[[4-[9-(3,3-difluoro-1-azetidinyl)-3-azaspiro[5.5]undecan-3-yl]-2-pyrimidinyl]oxy]ethyl]-4-methoxy-2,6-dimethylbenzenesulfonamide]",103,22
"COc1cc(C)c(S(=O)(=O)N2CC(Oc3nccc(N4CCC5(CCN(c6ccncc6)CC5)CC4)n3)C2)c(C)c1 [Example G-018, 3-[2-[[1-(4-methoxy-2,6-dimethylphenyl)sulfonyl-3-azetidinyl]oxy]-4-pyrimidinyl]-9-(4-pyridyl)-3,9-diazaspiro[5.5]undecane]",93,99

# Further lines, results first:
inhibition at 10 µM [1] [%],inhibition at 10 µM [2] [%],SMILES
102,100,"COc1cc(C)c(S(=O)(=O)N(CCOc2nccc(N3CCC4(CCN(c5ccncc5)CC4)C3)n2)C2CC2)c(C)c1 [Example G-019, N-cyclopropyl-4-methoxy-2,6-dimethyl-N-[2-[[4-[8-(4-pyridyl)-3,8-diazaspiro[4.5]decan-3-yl]-2-pyrimidinyl]oxy]ethyl]benzenesulfonamide]"
101,95,"COc1cc(C)c(S(=O)(=O)N(CCOc2nccc(N3CC(N4CCc5cc(CN6CCC6)ccc5C4)C3)n2)C2CC2)c(C)c1 [Example G-020, N-[2-[[4-[3-[6-(1-azetidinylmethyl)-3,4-dihydro-1H-isoquinolin-2-yl]-1-azetidinyl]-2-pyrimidinyl]oxy]ethyl]-N-cyclopropyl-4-methoxy-2,6-dimethylbenzenesulfonamide]"
86,90,"Cc1ccc(Cl)c(S(=O)(=O)N(CCOc2nccc(N3CCC4(CCN(c5ccncc5)CC4)CC3)n2)C2CC2)c1Cl [Example G-021, 2,6-dichloro-N-cyclopropyl-3-methyl-N-[2-[4-(9-pyridin-4-yl-3,9-diazaspiro[5.5]undecan-3-yl)-pyrimidin-2-yl]oxy-ethyl]-benzenesulfonic acid amide]"
103,100,"COc1cc(C)c(S(=O)(=O)NC2(COc3nccc(N4CCC5(CCN(c6ccncc6)CC5)CC4)n3)CCC2)c(C)c1 [Example G-022, 4-methoxy-2,6-dimethyl-N-[1-[[4-(9-pyridin-4-yl-3,9-diazaspiro[5.5]undecan-3-yl)-pyrimidin-2-yl]oxy-methyl]-cyclobutyl]-benzenesulfonic acid amide]"
107,94,"COc1cc(C)c(S(=O)(=O)N(CCOc2nccc(N3CCC4(CC3)CCC(OCCN3CCCC3)(c3cccnc3)CC4)n2)C2CC2)c(C)c1 [Example G-023, N-cyclopropyl-4-methoxy-2,6-dimethyl-N-[2-[4-[9-pyridin-3-yl-9-(2-pyrrolidin-1-yl-ethoxy)-3-azaspiro[5.5]undecan-3-yl]-pyrimidin-2-yl]oxy-ethyl]-benzenesulfonic acid amide]"
113,99,"COc1cc(C)c(S(=O)(=O)NC(C)(C)COc2nccc(N3CCC4(CCN(c5ccncc5)CC4)CC3)n2)c(C)c1 [Example G-024, N-[1,1-dimethyl-2-[4-(9-pyridin-4-yl-3,9-diazaspiro[5.5]undecan-3-yl)-pyrimidin-2-yl]oxy-ethyl]-4-methoxy-2,6-dimethyl-benzenesulfonic acid amide]"
104,92,"COc1cc(C)c(S(=O)(=O)N(CCCOc2nccc(N3CCC4(CCN(c5ccncc5)CC4)CC3)n2)C2CC2)c(C)c1 [Example G-025, N-cyclopropyl-4-methoxy-2,6-dimethyl-N-[3-[4-(9-pyridin-4-yl-3,9-diazaspiro[5.5]undecan-3-yl)-pyrimidin-2-yl]oxy-propyl]-benzenesulfonic acid amide]"
101,98,"COc1cc(C)c(S(=O)(=O)N2CCCC[C@H]2COc2nccc(N3CCC4(CCN(c5ccncc5)CC4)CC3)n2)c(C)c1 [Example G-026, 3-[2-[[(2S)-1-[(4-methoxy-2,6-dimethyl-phenyl)sulfonyl]-piperidin-2-yl]-methoxy]-pyrimidin-4-yl]-9-pyridin-4-yl-3,9-diazaspiro[5.5]undecane]"

# — US8269000B2, “Substituted pyrimidine and triazine compounds” (Gruenenthal GmbH, priority 2008, dated 2012)
